In patent US20230219913A1, “Sulfamoylamide Derivatives” (Hoffmann-La Roche Inc., priority 2020, published 2023):

Molecular target: T1, human cGAS (residues 161-522) (Homo sapiens, UniProt Q8N884)
T1 construct: Recombinantly expressed purified human cGAS (residues 161-522) was used at 25 nM; made in house
Assay: Malachite Green assay to measure cGAS activity (coupled enzymatic assay, phosphate detection)
Type: biochemical
Conditions: recombinant human cGAS 25 nM; 80 μM ATP, 80 μM GTP, 100 nM ISD; 4 hour at RT
Protocol: Malachite Green Assay to Measure cGAS Activity
Compounds were tested for cGAS inhibition in a coupled enzymatic assay based on Phosphate detection by Malachite Green. Final assay conditions were 20 mM TRIS pH 7.5 (Applichem), 5 mM MgCl2 (Sigma) and 0.01% BSA (Sigma) supplemented with 80 μM ATP (Sigma), 80 μM GTP (Sigma) and 100 nM Interferon Stimulating DNA (ISD) (Microsynth). Recombinantly expressed purified human cGAS (residues 161-522) was used at 25 nM.
All compounds were prepared as 10 mM stock solutions in DMSO and a 16 pt dilution series in DMSO with a dilution factor of 2.5 was prepared. 1 μL of DMSO dilution series was transferred to 32.3 μL reaction buffer, mixed by pipetting up/down, spun for 1 minute at 3000 rpm and was visually inspected for precipitation. 5 μL of 3-fold enzyme stock solution were transferred to an empty 384-well Black/Clear Flat Bottom Polystyrene NBS (Corning) rows 3-24. Rows 1-2 were filled with assay buffer. Plates were spun 10 seconds at 1000 rpm (164×g). 5 μL of compound intermediate dilution was added and mixed by pipetting up/down to rows 3-24. Rows 1-2 were filled with 3.1% DMSO assay buffer. Plates were spun 10 seconds at 1000 rpm (164×g). 5 μL 3-fold Nucleotide/DNA mix was added to all wells to start the reaction. Plates were spun 10 seconds at 1000 rpm (164×g) and incubated for 4 hour at room temperature (RT) in the dark. 5 μL 4 U/mL PPase (Sigma) were added to all wells. Plates spun 10 seconds at 1000 rpm (164×g). 10 μL BioMol green Solution (Enzo Life Sciences) was added to all wells. Plates spun 10 seconds at 1000 rpm (164×g) and incubated 30 minutes at RT in the dark. Absorbance data was collected 620 nm on an EnVision Multilable Reader (Perkin Elmer) and the following measurement settings were used: excitation filter photometric was 620 nm; excitation from the top; measurement height was 1 mm; number of flashes was 30; number of flashes integrated was 1.
All plates are checked for abnormalities and outliers in the Blank Control (no protein, row 1) and the Neutral Control (no compound, row 2) are excluded using the 3*SD rule. Data was normalized to 0 and 100% by Blank and Neutral Control and each curve was fitted and judged using the 4 parameter logistic equation to determine the IC50 for cGAS inhibition.
Table 1 provides IC50 values (04) for cGAS inhibition obtained for particular examples of the present invention as measured by the above-described assay.

T1 sequence (Q8N884 161-522): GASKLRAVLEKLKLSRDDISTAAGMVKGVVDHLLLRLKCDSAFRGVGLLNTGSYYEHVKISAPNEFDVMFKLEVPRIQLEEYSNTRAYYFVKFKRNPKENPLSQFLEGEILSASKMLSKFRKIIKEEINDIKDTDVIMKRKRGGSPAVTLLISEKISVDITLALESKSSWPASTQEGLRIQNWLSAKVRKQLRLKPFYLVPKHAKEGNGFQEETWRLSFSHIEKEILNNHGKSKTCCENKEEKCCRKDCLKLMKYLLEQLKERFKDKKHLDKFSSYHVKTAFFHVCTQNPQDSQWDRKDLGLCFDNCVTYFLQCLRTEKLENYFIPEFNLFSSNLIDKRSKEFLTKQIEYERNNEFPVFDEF

Structure (SMILES) | IC50
Cc1ccc(-c2ccc3c(c2)C(=O)NS(=O)(=O)N3)c(Cl)c1 [Example 1, 6-(2-Chloro-4-methylphenyl)-1H-benzo[c][1,2,6]thiadiazin-4(3H)-one 2,2-dioxide] | 2.94 µM
Cc1ccc(-c2ccc3c(c2)C(=O)NS(=O)(=O)N3CCN2CCOCC2)c(Cl)c1 [Example 2, 6-(2-Chloro-4-methylphenyl)-1-(2-morpholinoethyl)-1H-benzo[c][1,2,6]thiadiazin-4(3H)-one 2,2-dioxide] | 9.6 µM
Cc1ccc(-c2ccc3c(c2)C(=O)NS(=O)(=O)N3Cc2ccncc2)c(Cl)c1 [Example 3, 6-(2-Chloro-4-methylphenyl)-1-(pyridin-4-ylmethyl)-1H-benzo[c][1,2,6]thiadiazin-4(3H)-one 2,2-dioxide] | 14.2 µM
Cc1ccc(-c2ccc3c(c2)C(=O)NS(=O)(=O)N3CCc2ccccc2)c(Cl)c1 [Example 4, 6-(2-Chloro-4-methylphenyl)-1-phenethyl-1H-benzo[c][1,2,6]thiadiazin-4(3H)-one 2,2-dioxide] | 17.2 µM
Cc1ccc(-c2ccc3c(c2)C(=O)N(CCN2CCOCC2)S(=O)(=O)N3)c(Cl)c1 [Example 5, 6-(2-Chloro-4-methylphenyl)-3-(2-morpholinoethyl)-1H-benzo[c][1,2,6]thiadiazin-4(3H)-one 2,2-dioxide] | 17.6 µM
Cc1ccc(-c2ccc3c(c2)C(=O)NS(=O)(=O)N3Cc2ccccc2)c(Cl)c1 [Example 6, 1-Benzyl-6-(2-chloro-4-methylphenyl)-1H-benzo[c][1,2,6]thiadiazin-4(3H)-one 2,2-dioxide] | 20.1 µM
